The values below are quoted from earlier work in US20220273646A1, “PHARMACEUTICAL COMPOSITION OF TEMOZOLOMIDE” (INTAS PHARMACEUTICALS LTD., priority 2019, published 2022).

Like-named read-outs stand apart in the source and are kept apart here.

The conditions of series [1]: extemporaneously prepared oral suspensions from capsules, 4° C.
For series [2] the following is noted: solution from powder for intravenous infusion.

As for `Cn1nnc2c(C(N)=O)ncn2c1=O` [Temozolomide, 4-methyl-5-oxo-2,3,4,6,8-pentazabicyclo[4.3.0] nona-2,7,9-triene-9-carboxamide], the “time found chemically stable” value in series [1] is listed as “at least 60 days”. In addition, the temozolomide remained intact result is “more than 90%” in series [2] (1.25 mg/mL, 13 weeks at 5° C.) and “more than 90%” in series [2] (2.5 mg/mL, 9 days at room temperature).
